Assay results taken from patent US10945992B1, “Dosage forms of rofecoxib and related methods” (Tremeau Pharmaceuticals, Inc., priority 2019, dated 2021).
Read-outs that look alike come from different tables or passages of the source.

Experiment: TRM-201-PK-102 single-dose four-period crossover pharmacokinetic study, fasted healthy subjects
Assay type: in vivo, human
Conditions: human, plasma, oral; for Cmax / AUC(0-inf): 102 study
Procedure: A Single-Dose, Open-Label, Phase 1, Four-Period Crossover Pharmacokinetic Study of TRM-201 (Rofecoxib) 12.5 mg, 17.5 mg, 20 mg and 25 mg Administered to Healthy Subjects in a Fasting State, with Comparison to Historical Pharmacokinetic Parameters of Previously Marketed Rofecoxib (“TRM-201-PK-102” or “102 PK Study”)
This was a single-center, open-label four-period crossover PK study of TRM-201. The study included 24 subjects who received TRM-201 as a single dose of 12.5 mg, 17.5 mg, 20 mg and 25 mg to assess the PK of TRM-201 in healthy volunteers under fasted conditions. Subjects were randomized to one of four treatment sequences. The PK data from the current study along with the data from the TRM-201-PK-101 study (Example 4) was used to compare to historical pharmacokinetic parameters of previously marketed rofecoxib, all in a fasted state.
In each of the four dosing periods, subjects fasted overnight for at least 10 hours before study drug dosing. While fasting, subjects had nothing to eat and only water to drink. Water was permitted as desired, except for the period between 1 hour before and 1 hour after study drug dosing (excepting as permitted for dosing). After the 2-hour PK blood sample, subjects were allowed one 250-mL cup of clear apple juice. After the 4-hour PK blood sample, subjects were served a light lunch. Following the light lunch, subjects received standardized meals according to the clinic's standard procedures that were scheduled at consistent times and at least 15 minutes before or 15 minutes after PK sampling time points. Blood was withdrawn for PK analysis at predefined time points. For each dosing period the last time point was 120 hours after dosing with study drug (Day 6). After the 120 hour PK sample, the EOP procedures was completed, subjects remained in-clinic for the in-between dose period day (Days 7, 14, and 21) and began the next dosing period starting with an overnight fast for at least 10 hours on Day −1 of the subsequent dosing period. Pharmacokinetic and safety endpoints were evaluated.
The study drug, TRM-201, was an immediate-release tablet that contained 12.5 mg rofecoxib, 17.5 mg rofecoxib, 20 mg rofecoxib or 25 mg rofecoxib. The 7.25-mm diameter tablets were off-white, round, and uncoated with no markings. TRM-201 tablets were for oral administration.
For each sample, approximately 3 mL of blood were drawn. The samples were obtained by a straight stick or via an in-dwelling intravenous (IV) catheter in a forearm vein. Additional details for the collection, processing, storage, and shipping of PK samples were provided in the study manual.
Pharmacokinetic samples will be analyzed using a validated assay for rofecoxib in human plasma. Assay results and validation details will be provided in a separate bioanalytical report. The following PK parameters for rofecoxib will be calculated as primary endpoints using standard noncompartmental methods: AUC0-∞ and Cmax. Secondary endpoints include Tmax, and t1/2. Additional PK parameters (e.g., CL/F, and Vd/F) will also be calculated using standard noncompartmental methods.
Individual plasma concentrations for rofecoxib and PK sampling time deviation data will be presented in a data listing. Plasma concentration data will be summarized by time point using the following descriptive statistics: number of subjects, arithmetic mean, SD, coefficient of variation (CV), geometric mean, natural-log-scale SD, geometric CV, median, minimum, and maximum. Individual plasma concentration versus actual time profiles were presented on both linear and semilogarithmic scales. Additionally, arithmetic mean concentration versus scheduled time profiles were presented on linear scales and geometric means on semilogarithmic scales.
The PK parameters of rofecoxib were analyzed based on the actual sampling times. […]

[1] = 25 mg, read-out: arithmetic mean plasma concentration
[2] = 25 mg, read-out: geometric mean plasma concentration

Q: With `CS(=O)(=O)c1ccc(C2=C(c3ccccc3)C(=O)OC2)cc1` [TRM-201, 4-[4-(methylsulfonyl)phenyl]-3-phenyl-2(5H)-furanone] as the molecule, how does the Cmax (25 mg, 41-52 years, read-out: arithmetic mean Cmax) read?
A: 326 ng/mL

Q: And the AUC(0-inf) (25 mg, 41-52 years, read-out: geometric mean AUC0-∞)?
A: 4580 ng·h/mL

Q: What about the Cmax (25 mg, 41-52 years, read-out: geometric mean Cmax) of the same molecule?
A: 321 ng/mL

Q: What about the AUC(0-inf) (25 mg, 53-60 years, read-out: arithmetic mean AUC0-∞) of the same molecule?
A: 4940 ng·h/mL

Q: What about the Cmax (25 mg, 53-60 years, read-out: arithmetic mean Cmax) of the same molecule?
A: 354 ng/mL

Q: What about the AUC(0-inf) (25 mg, 53-60 years, read-out: geometric mean AUC0-∞) of the same molecule?
A: 4880 ng·h/mL

Q: And the Cmax (25 mg, 53-60 years, read-out: geometric mean Cmax)?
A: 347 ng/mL

Q: What about the AUC(0-inf) (25 mg, Black or African-American subjects, read-out: arithmetic mean AUC0-∞) of the same molecule?
A: 3990 ng·h/mL

Q: And the Cmax (25 mg, Black or African-American subjects, read-out: arithmetic mean Cmax)?
A: 340 ng/mL

Q: And the AUC(0-inf) (25 mg, Black or African-American subjects, read-out: geometric mean AUC0-∞)?
A: 3940 ng·h/mL

Q: What about the Cmax (25 mg, Black or African-American subjects, read-out: geometric mean Cmax) of the same molecule?
A: 339 ng/mL

Q: What about the AUC(0-inf) (25 mg, Hispanic or Latino subjects, read-out: arithmetic mean AUC0-∞) of the same molecule?
A: 4980 ng·h/mL

Q: And the Cmax (25 mg, Hispanic or Latino subjects, read-out: arithmetic mean Cmax)?
A: 358 ng/mL

Q: And the AUC(0-inf) (25 mg, Hispanic or Latino subjects, read-out: geometric mean AUC0-∞)?
A: 4870 ng·h/mL

Q: And the Cmax (25 mg, Hispanic or Latino subjects, read-out: geometric mean Cmax)?
A: 351 ng/mL

Q: And the AUC(0-inf) (25 mg, White subjects, read-out: arithmetic mean AUC0-∞)?
A: 4800 ng·h/mL

Q: And the Cmax (25 mg, White subjects, read-out: arithmetic mean Cmax)?
A: 351 ng/mL

Q: And the AUC(0-inf) (25 mg, White subjects, read-out: geometric mean AUC0-∞)?
A: 4650 ng·h/mL

Q: And the Cmax (25 mg, White subjects, read-out: geometric mean Cmax)?
A: 341 ng/mL

Q: What about the AUC(0-inf) (25 mg, body weight 47-70 kg, read-out: arithmetic mean AUC0-∞) of the same molecule?
A: 4450 ng·h/mL

Q: What about the Cmax (25 mg, body weight 47-70 kg, read-out: arithmetic mean Cmax) of the same molecule?
A: 385 ng/mL

Q: And the AUC(0-inf) (25 mg, body weight 47-70 kg, read-out: geometric mean AUC0-∞)?
A: 4310 ng·h/mL

Q: What about the Cmax (25 mg, body weight 47-70 kg, read-out: geometric mean Cmax) of the same molecule?
A: 376 ng/mL

Q: What about the AUC(0-inf) (25 mg, body weight 70.1-77 kg, read-out: arithmetic mean AUC0-∞) of the same molecule?
A: 5470 ng·h/mL

Q: And the Cmax (25 mg, body weight 70.1-77 kg, read-out: arithmetic mean Cmax)?
A: 371 ng/mL

Q: What about the AUC(0-inf) (25 mg, body weight 70.1-77 kg, read-out: geometric mean AUC0-∞) of the same molecule?
A: 5410 ng·h/mL

Q: And the Cmax (25 mg, body weight 70.1-77 kg, read-out: geometric mean Cmax)?
A: 368 ng/mL

Q: And the AUC(0-inf) (25 mg, body weight 77.1-90 kg, read-out: arithmetic mean AUC0-∞)?
A: 4130 ng·h/mL

Q: What about the Cmax (25 mg, body weight 77.1-90 kg, read-out: arithmetic mean Cmax) of the same molecule?
A: 299 ng/mL

Q: And the AUC(0-inf) (25 mg, body weight 77.1-90 kg, read-out: geometric mean AUC0-∞)?
A: 4040 ng·h/mL

Q: And the Cmax (25 mg, body weight 77.1-90 kg, read-out: geometric mean Cmax)?
A: 294 ng/mL

Q: And the AUC(0-inf) (25 mg, non-Hispanic or non-Latino subjects, read-out: arithmetic mean AUC0-∞)?
A: 4280 ng·h/mL

Q: And the Cmax (25 mg, non-Hispanic or non-Latino subjects, read-out: arithmetic mean Cmax)?
A: 340 ng/mL

Q: And the AUC(0-inf) (25 mg, non-Hispanic or non-Latino subjects, read-out: geometric mean AUC0-∞)?
A: 4150 ng·h/mL

Q: What about the Cmax (25 mg, non-Hispanic or non-Latino subjects, read-out: geometric mean Cmax) of the same molecule?
A: 331 ng/mL

Q: What about the concentration at 15 minutes [1] of the same molecule?
A: 5.63 ng/mL

Q: And the concentration at 15 minutes [2]?
A: 1.37 ng/mL

Q: What about the concentration at 45 minutes [1] of the same molecule?
A: 159 ng/mL

Q: And the concentration at 45 minutes [2]?
A: 97.6 ng/mL

Q: What about the AUC(0-inf) (male, 12.5 mg, males, read-out: arithmetic mean AUC0-∞) of the same molecule?
A: 1750 ng·h/mL

Q: What about the Cmax (male, 12.5 mg, males, read-out: arithmetic mean Cmax) of the same molecule?
A: 132 ng/mL

Q: What about the AUC(0-inf) (male, 12.5 mg, males, read-out: geometric mean AUC0-∞) of the same molecule?
A: 1580 ng·h/mL

Q: And the Cmax (male, 12.5 mg, males, read-out: geometric mean Cmax)?
A: 127 ng/mL

Q: And the AUC(0-inf) (male, 17.5 mg, males, read-out: arithmetic mean AUC0-∞)?
A: 2860 ng·h/mL

Q: And the Cmax (male, 17.5 mg, males, read-out: arithmetic mean Cmax)?
A: 201 ng/mL

Q: What about the AUC(0-inf) (male, 17.5 mg, males, read-out: geometric mean AUC0-∞) of the same molecule?
A: 2710 ng·h/mL

Q: And the Cmax (male, 17.5 mg, males, read-out: geometric mean Cmax)?
A: 196 ng/mL

Q: And the AUC(0-inf) (male, 20 mg, males, read-out: arithmetic mean AUC0-∞)?
A: 3130 ng·h/mL

Q: What about the Cmax (male, 20 mg, males, read-out: arithmetic mean Cmax) of the same molecule?
A: 234 ng/mL

Q: What about the AUC(0-inf) (male, 20 mg, males, read-out: geometric mean AUC0-∞) of the same molecule?
A: 2940 ng·h/mL

Q: And the Cmax (male, 20 mg, males, read-out: geometric mean Cmax)?
A: 224 ng/mL

Q: What about the AUC(0-inf) (male, 25 mg, males, read-out: arithmetic mean AUC0-∞) of the same molecule?
A: 4080 ng·h/mL

Q: What about the Cmax (male, 25 mg, males, read-out: arithmetic mean Cmax) of the same molecule?
A: 302 ng/mL

Q: And the AUC(0-inf) (male, 25 mg, males, read-out: geometric mean AUC0-∞)?
A: 3940 ng·h/mL

Q: And the Cmax (male, 25 mg, males, read-out: geometric mean Cmax)?
A: 298 ng/mL

Q: And the AUC(0-inf) (male, 25 mg, printed 'For males' (second statement, after the females' arithmetic means), read-out: geometric mean AUC0-∞)?
A: 5020 ng·h/mL

Q: What about the Cmax (male, 25 mg, printed 'For males' (second statement, after the females' arithmetic means), read-out: geometric mean Cmax) of the same molecule?
A: 382 ng/mL
